Assay results reported in ChEMBL document CHEMBL4359925, “Rational discovery of a highly novel and selective mTOR inhibitor” (Bioorg Med Chem Lett, 2019).
Activity calls are given as the source filed them. The rule behind the calls is not given here.

What was measured:
NCI-H1975 [1] = assay: Additive antiproliferative activity against human NCI-H1975 cells harboring EGFR […]/T790M mutant in presence of erlotinib; type: functional, cell-based
[2] = Cmax in rat at 31 mg/kg, po; type: ADME, organism-based; design: dose 31 mg/kg, route oral; conditions: in vivo
[3] = Volume of distribution at steady state in mouse at 10.4 mg/kg, iv; type: ADME, organism-based; conditions: in vivo, read-out: Vdss
[4] = Half-life in rat at 4.9 mg/kg, po; type: ADME, organism-based; conditions: in vivo
[5] = Tmax in dog at 30 mg/kg, po; type: ADME, organism-based, Canis lupus familiaris; conditions: in vivo
[6] = Cmax in mouse at 8.7 mg/kg, po; type: ADME, organism-based; design: dose 8.7 mg/kg, route oral; conditions: in vivo
[7] = Clearance in dog at 0.2 mg/kg, iv; type: ADME, organism-based, Canis lupus familiaris; conditions: in vivo
[8] = Cmax in rat at 83 mg/kg, po; type: ADME, organism-based; design: dose 83 mg/kg, route oral; conditions: in vivo
[9] = Half-life in dog at 30 mg/kg, po; type: ADME, organism-based, Canis lupus familiaris; conditions: in vivo
[10] = Tmax in rat at 4.9 mg/kg, po; type: ADME, organism-based; conditions: in vivo
[11] = Half-life in rat at 0.8 mg/kg, iv; type: ADME, organism-based; conditions: in vivo
[12] = Half-life in rat at 160 mg/kg, po; type: ADME, organism-based; conditions: in vivo
[13] = Half-life in rat at 100 mg/kg, po; type: ADME, organism-based; conditions: in vivo
[14] = Half-life in mouse at 8.7 mg/kg, po; type: ADME, organism-based; conditions: in vivo
[15] = Tmax in rat at 31 mg/kg, po; type: ADME, organism-based; conditions: in vivo
NCI-H460 [16] = assay: Synergistic antiproliferative activity against human H460 cells harboring KRAS […] mutant in presence of gemcitabine
A549 [17] = assay: Synergistic antiproliferative activity against human A549 cells harboring LKB1 mutant in presence of erlotinib; type: functional, cell-based
[18] = Tmax in rat at 3 mg/kg, po; type: ADME, organism-based; conditions: in vivo
NCI-H1650 [19] = assay: Additive antiproliferative activity against human NCI-H1650 cells harboring EGFR E746-A750del mutant in presence of gemcitabine; type: functional, cell-based
[20] = Half-life in rat at 83 mg/kg, po; type: ADME, organism-based; conditions: in vivo
HCT-116 = assay: Antiproliferative activity against human HCT116; type: functional, cell-based
[21] = Cmax in rat at 100 mg/kg, po; type: ADME, organism-based; design: dose 100 mg/kg, route oral; conditions: in vivo
NCI-H460 [22] = assay: Antiproliferative activity against human H460 cells; type: functional, cell-based
[23] = Cmax in rat at 30 mg/kg, po; type: ADME, organism-based; design: dose 30 mg/kg, route oral; conditions: in vivo
[24] = Cmax in dog at 0.45 mg/kg, po; type: ADME, organism-based, Canis lupus familiaris; design: dose 0.45 mg/kg, route oral; conditions: in vivo
[25] = Tmax in rat at 83 mg/kg, po; type: ADME, organism-based; conditions: in vivo
[26] = Half-life in rat at 95 mg/kg, po; type: ADME, organism-based; conditions: in vivo
[27] = Half-life in rat at 4.1 mg/kg, po; type: ADME, organism-based; conditions: in vivo
[28] = Half-life in rat at 30 mg/kg, po; type: ADME, organism-based; conditions: in vivo
[29] = Half-life in rat at 31 mg/kg, po; type: ADME, organism-based; conditions: in vivo
[30] = Half-life in rat at 3 mg/kg, po; type: ADME, organism-based; conditions: in vivo
NCI-H1650 [31] = assay: Additive antiproliferative activity against human NCI-H1650 cells harboring EGFR E746-A750del mutant in presence of erlotinib; type: functional, cell-based
NCI-H1395 [32] = assay: Additive antiproliferative activity against human NCI-H1395 cells harboring LKB1 mutant in presence of erlotinib; type: functional, cell-based
[33] = Cmax in dog at 30 mg/kg, po; type: ADME, organism-based, Canis lupus familiaris; design: dose 30 mg/kg, route oral; conditions: in vivo
[34] = Cmax in dog at 0.2 mg/kg, iv; type: ADME, organism-based, Canis lupus familiaris; design: dose 0.2 mg/kg, route intravenous; conditions: in vivo
[35] = Half-life in dog at 0.2 mg/kg, iv; type: ADME, organism-based, Canis lupus familiaris; conditions: in vivo
NCI-H1975 [36] = assay: Additive antiproliferative activity against human NCI-H1975 cells harboring EGFR […]/T790M mutant in presence of gemcitabine; type: functional, cell-based
A549 [37] = assay: Synergistic antiproliferative activity against human A549 cells harboring KRAS G12S mutant in presence of gemcitabine; type: functional, cell-based
NCI-H292 [38] = assay: Additive antiproliferative activity against human NCI-H292 cells in presence of gemcitabine; type: functional, cell-based
NCI-H292 [39] = assay: Additive antiproliferative activity against human NCI-H292 cells in presence of erlotinib; type: functional, cell-based
[40] = Volume of distribution at steady state in dog at 0.2 mg/kg, iv; type: ADME, organism-based, Canis lupus familiaris; conditions: in vivo, read-out: Vdss
[41] = Volume of distribution at steady state in mouse at 2.8 mg/kg, iv; type: ADME, organism-based; conditions: in vivo, read-out: Vdss
DU-145 = assay: Antiproliferative activity against human DU145 cells; type: functional, cell-based
NCI-H1395 [42] = assay: Additive antiproliferative activity against human NCI-H1395 cells harboring BRAF G469A in presence of erlotinib; type: functional, cell-based
NCI-H1395 [43] = assay: Antiproliferative activity against human NCI-H1395 cells; type: functional, cell-based
[44] = Cmax in mouse at 2.8 mg/kg, iv; type: ADME, organism-based; design: dose 2.8 mg/kg, route intravenous; conditions: in vivo
NCI-H460 [45] = assay: Synergistic antiproliferative activity against human H460 cells harboring LKB1 mutant in presence of gemcitabine; type: functional, cell-based
[46] = Tmax in rat at 30 mg/kg, po; type: ADME, organism-based; conditions: in vivo

With `CC(F)(F)CN1C(=O)[C@]2(C)COCCN2c2nc(-c3ccc(NC(=O)NC4CC4)cc3)ncc21` the Activity (NCI-H1975 [1]) was “Active”, the Cmax [2] was 1910 to 2700 ng/mL and the Vd [3] was 1.16 L/kg. The half-life [4] was 5.5 h, the Tmax [5] was 7.3 h and the Cmax [6] was 5370 ng/mL. It also gave a clearance [7] of 3.3 mL/min/kg, a Cmax [8] of 2370 ng/mL and a half-life [9] of 9.2 h. For the same molecule, the Tmax [10] was 3.3 h, the half-life [11] was 1.8 h and the half-life [12] was 21.4 h. For the same molecule, the half-life [13] was 14.7 to 15 h, the half-life [14] was 2.3 h and the Tmax [15] was 8 to 19.3 h. The Activity (NCI-H460 [16]) was “Active”, the Activity (A549 [17]) was “Active” and the Tmax [18] was 6.7 h. For the same molecule, the Activity (NCI-H1650 [19]) was “Active”, the half-life [20] was 5.4 h and the Activity (HCT-116) was “Active”. For the same molecule, the Cmax [21] was 3670 to 6410 ng/mL, the Activity (NCI-H460 [22]) was “Active” and the Cmax [23] was 1850 to 2400 ng/mL. It also gave a Cmax [24] of 250 ng/mL, a Tmax [25] of 14 h and a half-life [26] of 33.9 h. For the same molecule, the half-life [27] was 15.2 h, the half-life [28] was 9 to 13.5 h and the half-life [29] was 8.7 to 18.6 h. The half-life [30] was 10.3 h, the Activity (NCI-H1650 [31]) was “Active” and the Activity (NCI-H1395 [32]) was “Active”. It also gave a Cmax [33] of 726 ng/mL, a Cmax [34] of 278 ng/mL and a half-life [35] of 7.5 h. For the same molecule, the Activity (NCI-H1975 [36]) was “Active”, the Activity (A549 [37]) was “Active” and the Activity (NCI-H292 [38]) was “Active”. For the same molecule, the Activity (NCI-H292 [39]) was “Active”, the Vd [40] was 1.12 L/kg and the Vd [41] was 1.66 L/kg. The Activity (DU-145) was “Active”, the Activity (NCI-H1395 [42]) was “Active” and the Activity (NCI-H1395 [43]) was “Active”. For the same molecule, the Cmax [44] was 6860 ng/mL, the Activity (NCI-H460 [45]) was “Active” and the Tmax [46] was 4 to 8 h.
